PubChem BioAssay (NCI)
Where “and” joins values, the source holds several entries; their conditions need not be identical. Identical values can stand only once.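 96-well plates; 48 h exposure; 5 concentrations. Endpoints by linear interpolation between flanking doses. Not reached: highest tested concentration assigned. Here, GI50 denotes the concentration required for 50% inhibition of growth. TGI: concentration producing complete growth inhibition.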

What was measured:
Assay in all cases: inhibition of tumour cell growth, NCI panel, 48 h
UACC-257 melanoma = test system: UACC-257 melanoma
NCI-H522 lung = test system: NCI-H522 lung
MOLT-4 leukemia = test system: MOLT-4 leukemia
CAKI-1 renal = test system: CAKI-1 renal
EKVX NSCLC = test system: EKVX NSCLC
786-0 renal = test system: 786-0 renal
SF-539 CNS = test system: SF-539 CNS
K-562 leukemia = test system: K-562 leukemia
COLO 205 colon = test system: COLO 205 colon
IGROV1 ovarian = test system: IGROV1 ovarian

Row | SMILES | GI50 (UACC-257 melanoma) | TGI (UACC-257 melanoma) | GI50 (NCI-H522 lung) [nM] | TGI (NCI-H522 lung) | GI50 (MOLT-4 leukemia) | TGI (MOLT-4 leukemia) | GI50 (CAKI-1 renal) [nM] | TGI (CAKI-1 renal) | GI50 (EKVX NSCLC) [nM] | TGI (EKVX NSCLC) | GI50 (786-0 renal) | TGI (786-0 renal) | GI50 (SF-539 CNS) | TGI (SF-539 CNS) | GI50 (K-562 leukemia) | TGI (K-562 leukemia) | GI50 (COLO 205 colon) | TGI (COLO 205 colon) | GI50 (IGROV1 ovarian) | TGI (IGROV1 ovarian)
1 | CCN(CC)CCOc1nc2ccc(OC)cc2c2c1-c1ccc(OC)cc1C2=O | 1400 nM | 3120 nM | 394 | 1810 nM | 283 nM | 1850 nM | 1150 | 2880 nM | 970 | 2810 nM | 1390 nM | 3110 nM | 1240 nM | 2950 nM | 502 nM | 2540 nM | 546 nM | 1930 nM | 417 nM | 1890 nM
2 | C[C@@H]1C[C@@H](O)[C@]2(O)O[C@@H]3C[C@@]4(C=O)[C@@H](CC[C@@H]5[C@@H]4CC[C@]4(C)[C@@H](C6=CC(=O)OC6)CC[C@]54O)C[C@H]3O[C@@H]2O1 | 71.1 nM and 29.1 nM | 118 nM and 266 nM and 122 nM | 7.51 | – | 6.99 nM and 5 nM | – | 43.2 | 48.6 nM and 360 nM | 10.4 | 96.4 nM and 104 nM | 21.2 nM and 5 nM | 12.4 nM and 61.1 nM and 22.2 nM | 15 nM and 5 nM | 14.6 nM and 37 nM and 14.4 nM | 55.3 nM and 12.4 nM | 601 nM and 1590 nM and 523 nM | 108 nM and 25 nM | 82.6 nM and 277 nM and 91.8 nM | 33 nM and 7.27 nM | 47.4 nM and 175 nM and 51.6 nM
3 | N#Cc1c(Sc2ccccc2N)cccc1Sc1ccccc1N | 21300 nM | – | 51700 | – | 22200 nM | – | 60800 | – | 35600 | – | 37800 nM | – | 69700 nM | – | 22900 nM | – | 34900 nM | – | 50900 nM | –
4 | COc1ccc2c(c1)/C(=C\c1c(C)nc3sc(C)cn13)C(=O)N2C | 21800 nM | > 100000 nM | 2540 | 8440 nM | 3760 nM | > 100000 nM | 1330 | 4330 nM | 16700 | 73800 nM | 8920 nM | > 100000 nM | 1910 nM | 6630 nM | 1830 nM | > 100000 nM | 3420 nM | 49800 nM | 9740 nM | > 100000 nM
5 | CN1CC[C@@H](c2c(O)cc(O)c3c(=O)cc(-c4ccccc4Cl)oc23)[C@@H](O)C1 | 125 nM and 137 nM | 366 nM and 619 nM and 282 nM | – | 222 nM and 319 nM | 42.9 nM and 28.8 nM | 662 nM and 521 nM | – | > 39600 nM | 141 | 435 nM and 947 nM | 108 nM | 17900 nM | 68.8 nM and 19.7 nM | 141 nM and 57 nM and 148 nM | 212 nM and 145 nM | – | 91.7 nM | 223 nM and 116 nM | – | > 100000 nM
6 | CC1OC(OCC2OC(Oc3c(-c4ccc(O)cc4)oc4cc(O)cc(O)c4c3=O)C(OC3OCC(O)(CO)C3O)C(O)C2O)C(O)C(O)C1O (centres undefined) | – | > 100000 nM | – | > 100000 nM | – | > 100000 nM | – | > 100000 nM | – | > 100000 nM | – | > 100000 nM | – | > 100000 nM | – | 74900 nM | – | > 100000 nM | – | > 100000 nM
7 | COc1cc(CCc2ccc(OCCN(C)C)cc2)cc(OC)c1OC | – | > 100000 nM | – | > 100000 nM | – | > 100000 nM | – | > 100000 nM | – | > 100000 nM | – | > 100000 nM | – | > 100000 nM | – | > 100000 nM | – | 38900 nM | – | > 100000 nM
8 | COc1ccc2c(c1)[nH]c(=O)c1c3cc(C)c(C)cc3cn21 | 12800 nM | 26400 nM | < 11.5 | < 27.5 nM | < 17.6 nM | 281 nM | < 10 | 10.2 nM | 56.3 | 4670 nM | < 23.3 nM | 1600 nM | 18.6 nM | 57.8 nM | < 10 nM | 140 nM | < 13.4 nM | 24.8 nM | < 18.8 nM | 215 nM
